Laboratory results from patent US11596623B2, “Methods for treating virus infection or proliferation” (HOWARD UNIVERSITY, priority 2018, dated 2023).
“Also recorded” adds a separate entry of the source.

Tests used:
EV-D68 = EV-D68 VP1 western assay in HEp-2 cells; assay type: cell-based; conditions: 48 h; for EV-D68 proliferation / major structural protein VP1: HEp-2 cells, western
Experimental: HEp-2 cells were grown to 80-90% confluency in Dulbecco's Modified Eagle's medium (DMEM) supplemented with 10% fetal calf serum (FCS) and 1% penicillin-streptomycin (PS) and fungicide. The virus and the indicated concentration of compounds were added and incubated for 48 h. After washing with PBS, the cell lysates were collected and were run in a Biorad XT-Criterion gel and transferred to a PVDF membrane. The membrane was blotted with an antibody directed against the EVD68 major structural protein VP1 purchased from Genetex (Irvine, Calif.). An anti-mouse IgG-HRP secondary antibody and Biorad's Western ECL substrate-Clarity was used to label the bands and the image was obtained in a Biorad Gel doc system. […] The tubulin antibody was used as the loading control.
HEp-2 cells were grown to 80-90% confluency in Dulbecco's Modified Eagle's medium (DMEM) supplemented with 10% fetal calf serum (PCS) and 1% penicillin-streptomycin (PS) and 1% fungicide. The EV-D68 virus and the indicated concentration of compounds were added and incubated for 48 h. After washing with PBS, the cell lysates were collected and were run in a Biorad Stain free TGX gel and were transferred to a PVDF membrane. The membrane was blotted with an antibody directed against the EV-D68 major structural protein VP1 purchased from Genetex (Irvine, Calif.). An antimouse IgG-HRP secondary antibody and Biorad's Western ECL substrate-Clarity was used to label the bands and the image was obtained in a Biorad Gel doc system. […] The non-specific band high above the VP1 band indicate that all virus treated lanes were loaded with equal amount of lysates. The identity of the EV-D68 VP1 protein is confirmed by the lack of the 33 kD band in the no virus lane.
HEp-2 cells were grown to 80-90% confluency in Dulbecco's Modified Eagle's medium (DMEM) supplemented with 10% fetal calf serum FCS and 1% penicillin-streptomycin (PS) and fungicide. The representative virus (EV-D68) and the indicated concentration of compounds were added and incubated for 48 h. […]

IRES (β-Globin) = assay: Dual-luciferase reporter assay, β-Globin control construct; assay type: cell-based
Experimental: Dual-luciferase reporter constructs were generously provided from (Plank et al., 2013) and (Carvajal et al., 2016). In the plasmid constructs, renilla luciferase (Rluc) translation is cap-dependent, while the firefly luciferase (Flue) translation depends on HIV-1 IRES. The Fluc/Rluc ratio was measured in the presence or the absence of the compounds in HEK293T cells transfected with the dual-luciferase plasmid bearing either Beta-globin, HCV, HIV-1 gag, EMVC or HIV-1 ladder sequences. Cells get transfected with the plasmids using Lipofectamine 3000 Reagent, from Thermo Fisher Scientific. Then treated with RACK1 inhibitors and its analogs (SD-29, and SD-29-14) at different concentrations; 1 μM, 10 μM, and […]. Moreover, the cells were treated with Dimethyl sulfoxide (DMSO) as a vehicle control or left untreated. Luc-Pair™ Duo-Luciferase Assay Kit 2.0 Kit (Genecopoeia) was used to measure the luciferase activity. HEK293T cells were grown to reach no more than 90% confluent at the desired time of lysate preparation.
For measuring Fluc/Rluc ratio and bioluminescence, Both Renilla and Firefly substrates were added to the same wells containing respective plasmid constructs. After the described incubation period, luciferase activity was evaluated from bioluminescence images acquired by a Perkin Elmer IVIS Spectrum Imaging system immediately after adding luciferase substrates. The Spectral Un-mixing options integrated in the software was used to un-mix the respective luminescence from Renilla and Firefly. Bioluminescence intensity in each well was quantified in units of photons per second per centimeter squared per steradian (p/s/cm^2/sr) by drawing a polygonal region of interest over the signals in images using Living Image 3.0 software (Caliper Life Sciences).
Dual-luciferase reporter constructs were used to determine if the drugs targeting RACK1 affect IRES-mediated translation. Renilla luciferase (Rluc) translation dependent on cap and the firefly luciferase (Fluc) translation dependent on HIV-1 IRES were utilized. The Fluc/Rluc ratio was measured in the presence or the absence of the compounds in the HEK293T cells transfected with the dual-luciferase plasmid bearing the predicted IRES from HIV-1 driving a firefly luciferase reporter gene and a cap dependent renilla luciferase from the same construct. As a control, HCV IRES is used within the dual luciferase construct (instead of HIV-1) as a positive control as HCV is known to use IRES solely for translating its transcripts, while Beta-globin plasmid was used as a negative control. The dual-luciferase reporters, as used here, are previously reported where HIV-1 IRES were reported (Plank, T. D., J. T. Whitehurst, and J. S. Kieft, Cell type specificity and structural determinants of IRES activity from the 5′ leaders of different HIV-1 transcripts. Nucleic Acids Res, 2013. 41(13): p. 6698-714; Carvajal, F., et al., Structural domains within the HIV-1 mRNA and the ribosomal protein S25 influence cap-independent translation initiation. FEBS J, 2016. 283(13): p. 2508-27.) The cells were transfected with the plasmids using Lipofectamine, then treated with RACK1 inhibitors (SD-29 and SD29-14) at different concentrations (1, 10, and 50 μM). Control cells were treated with DMSO or left untreated. SV40 promoter produces a capped and poly-adenylated dicistronic message. Translation of the upstream cistron (renilla luciferase, RLUC) is cap dependent, whereas translation of the downstream cistron (firefly luciferase, FLUC) occurs cap independently. The dual luciferase constructs are depicted in FIG. 1A. IRES activity is measured by calculating the ratio of FLUC to RLUC light production (RLUs) (Plank et al., 2013).

Compound | EV-D68 proliferation / major structural protein VP1 (EV-D68) | EV-D68 proliferation / major structural protein VP1 (EV-D68; listed as SD 29-14) | efficacy in inhibiting EV-D68 compared with SD29 and SD29-12 (EV-D68; VP1 western) | FLUC (IRES (β-Globin); 1 μM) [p/s/cm^2/sr] | FLUC/RLUC Ratio (IRES (β-Globin); 1 μM) | FLUC (IRES (β-Globin); 10 μM) [p/s/cm^2/sr] | FLUC/RLUC Ratio (IRES (β-Globin); 10 μM) | RLUC (IRES (β-Globin); 10 μM) [p/s/cm^2/sr] | FLUC (IRES (β-Globin); 50 μM) [p/s/cm^2/sr] | FLUC/RLUC Ratio (IRES (β-Globin); 50 μM) | RLUC (IRES (β-Globin); 50 μM) [p/s/cm^2/sr] | RLUC (IRES (β-Globin); 1 μM) [p/s/cm^2/sr]
Nn1c(S)nnc1-c1cc(Cl)cc(Cl)c1 [SD29-14] | inhibits EV-D68 proliferation in a dose dependent way; also recorded: effectively inhibited the viral major structural protein VP1 | inhibits proliferation of a representative virus (EV-D68), in a dose dependent way | better efficacy | 2.21E+04 | 0.067 ± 0.002 | 2.72E+04 | 0.062 ± 0.003 | 4.39E+05 | 1.74E+04 | 0.067 ± 0.004 | 2.62E+05 | –
Nn1c(S)nnc1-c1ccc(F)cc1 [SD-29] | – | – | – | 4.02E+04 | 0.068 ± 0.002 | 3.52E+04 | 0.074 ± 0.006 | 4.70E+05 | 3.74E+04 | 0.093 ± 0.004 | 4.01E+05 | 5.82E+05
